Source: PubChem BioAssay AID248 (DTP/NCI, 2004)
Where “and” joins values, the source holds several entries; their conditions need not be identical. Equal values may be shown once. Toxic doses and inconclusive results are not listed.

Tested on: L1210 leukemia ip in BDF1 mice, survival T/C
Assay: NCI In Vivo Anticancer Drug Screen. Data for tumor model L1210 Leukemia (intraperitoneal) in B6D2F1 (BDF1) mice
Details: higher = longer survival
Method in brief: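 Each compound was tested against a transplantable tumor grown in mice. The endpoint was survival, with treated animals benchmarked against vehicle controls as a simple ratio.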

[1] = endpoint: mean survival time, dose: 100.0 mg/kg/injection, schedule: Q04DX003 (ip), vehicle: saline with Tween-80

`COC(=O)Nc1nc2ccc(C(=O)c3cccs3)cc2[nH]1` was tested, and the T/C (endpoint: mean survival time, dose: 10.0 mg/kg/injection, schedule: Q01DX009 (ip), vehicle: saline with Tween-80) was 102 % of control, the T/C (endpoint: mean survival time, dose: 10.0 mg/kg/injection, schedule: Q04DX003 (ip), vehicle: Klucel (hydroxypropylcellulose) (HPC)) was 98 % of control and the T/C (endpoint: mean survival time, dose: 20.0 mg/kg/injection, schedule: Q01DX009 (ip), vehicle: saline with Tween-80) was 118 % of control. The T/C (endpoint: mean survival time, dose: 20.0 mg/kg/injection, schedule: Q04DX003 (ip), vehicle: Klucel (hydroxypropylcellulose) (HPC)) was 101 % of control, the T/C (endpoint: mean survival time, dose: 40.0 mg/kg/injection, schedule: Q04DX003 (ip), vehicle: Klucel (hydroxypropylcellulose) (HPC)) was 107 % of control and the T/C (endpoint: mean survival time, dose: 50.0 mg/kg/injection, schedule: Q04DX003 (ip), vehicle: Klucel (hydroxypropylcellulose) (HPC)) was 108 % of control and 111 % of control. For the same compound, the T/C (endpoint: mean survival time, dose: 50.0 mg/kg/injection, schedule: Q04DX003 (ip), vehicle: saline with Tween-80) was 111 % of control, the T/C (endpoint: mean survival time, dose: 70.0 mg/kg/injection, schedule: Q04DX003 (ip), vehicle: other) was 157 % of control and the T/C (endpoint: mean survival time, dose: 75.0 mg/kg/injection, schedule: Q04DX003 (ip), vehicle: Klucel (hydroxypropylcellulose) (HPC)) was 111 % of control and 121 % of control. For the same compound, the T/C (endpoint: mean survival time, dose: 75.0 mg/kg/injection, schedule: Q04DX003 (ip), vehicle: other) was 117 % of control and 183 % of control and 210 % of control, the T/C (endpoint: mean survival time, dose: 80.0 mg/kg/injection, schedule: Q04DX003 (ip), vehicle: Klucel (hydroxypropylcellulose) (HPC)) was 94 % of control and the T/C (endpoint: mean survival time, dose: 80.0 mg/kg/injection, schedule: Q04DX003 (ip), vehicle: other) was 153 % of control. For the same compound, the T/C (endpoint: mean survival time, dose: 100.0 mg/kg/injection, schedule: Q01DX009 (oral), vehicle: saline with Tween-80) was 94 % of control, the T/C (endpoint: mean survival time, dose: 100.0 mg/kg/injection, schedule: Q04DX003 (ip), vehicle: Klucel (hydroxypropylcellulose) (HPC)) was 115 % of control and the T/C (endpoint: mean survival time, dose: 100.0 mg/kg/injection, schedule: Q04DX003 (ip), vehicle: other) was 114 % of control and 115 % of control and 89 % of control. For the same compound, the T/C [1] was 155 % of control and 170 % of control, the T/C (endpoint: mean survival time, dose: 150.0 mg/kg/injection, schedule: Q04DX003 (ip), vehicle: other) was 104 % of control and the T/C (endpoint: mean survival time, dose: 160.0 mg/kg/injection, schedule: Q04DX003 (ip), vehicle: Klucel (hydroxypropylcellulose) (HPC)) was 113 % of control. The T/C (endpoint: mean survival time, dose: 200.0 mg/kg/injection, schedule: Q01DX009 (oral), vehicle: saline with Tween-80) was 96 % of control, the T/C (endpoint: mean survival time, dose: 200.0 mg/kg/injection, schedule: Q04DX003 (oral), vehicle: saline with Tween-80) was 104 % of control and the T/C (endpoint: mean survival time, dose: 400.0 mg/kg/injection, schedule: Q01DX009 (oral), vehicle: saline with Tween-80) was 100 % of control. The T/C (endpoint: mean survival time, dose: 400.0 mg/kg/injection, schedule: Q04DX003 (oral), vehicle: saline with Tween-80) was 97 % of control, the T/C (endpoint: mean survival time, dose: 600.0 mg/kg/injection, schedule: Q04DX003 (oral), vehicle: saline with Tween-80) was 104 % of control and the T/C (endpoint: mean survival time, dose: 800.0 mg/kg/injection, schedule: Q04DX003 (oral), vehicle: saline with Tween-80) was 89 % of control. For the same compound, the T/C (endpoint: mean survival time, dose: 1600.0 mg/kg/injection, schedule: Q04DX003 (oral), vehicle: saline with Tween-80) was 104 % of control, the T/C (endpoint: median survival time, dose: 5.0 mg/kg/injection, schedule: Q01DX009 (ip), vehicle: other) was 101 % of control and the T/C (endpoint: median survival time, dose: 7.5 mg/kg/injection, schedule: Q03HX016 (ip), vehicle: other) was 158 % of control. For the same compound, the T/C (endpoint: median survival time, dose: 7.5 mg/kg/injection, schedule: Q03HX024 (ip), vehicle: other) was 164 % of control, the T/C (endpoint: median survival time, dose: 10.0 mg/kg/injection, schedule: Q01DX009 (ip), vehicle: other) was 117 % of control and 120 % of control and the T/C (endpoint: median survival time, dose: 10.0 mg/kg/injection, schedule: Q03HX016 (ip), vehicle: other) was 158 % of control. The T/C (endpoint: median survival time, dose: 15.0 mg/kg/injection, schedule: Q03HX008 (ip), vehicle: other) was 177 % of control, the T/C (endpoint: median survival time, dose: 15.0 mg/kg/injection, schedule: Q03HX024 (ip), vehicle: other) was 88 % of control and the T/C (endpoint: median survival time, dose: 20.0 mg/kg/injection, schedule: Q01DX005 (ip), vehicle: other) was 151 % of control. For the same compound, the T/C (endpoint: median survival time, dose: 20.0 mg/kg/injection, schedule: Q01DX009 (ip), vehicle: other) was 121 % of control, the T/C (endpoint: median survival time, dose: 20.0 mg/kg/injection, schedule: Q08HX009 (ip), vehicle: other) was 119 % of control and the T/C (endpoint: median survival time, dose: 30.0 mg/kg/injection, schedule: Q01DX005 (ip), vehicle: other) was 153 % of control. The T/C (endpoint: median survival time, dose: 30.0 mg/kg/injection, schedule: Q01DX009 (ip), vehicle: other) was 157 % of control, the T/C (endpoint: median survival time, dose: 35.0 mg/kg/injection, schedule: Q04DX003 (ip), vehicle: Klucel (hydroxypropylcellulose) (HPC)) was 119 % of control and the T/C (endpoint: median survival time, dose: 35.0 mg/kg/injection, schedule: Q04DX003 (ip), vehicle: other) was 123 % of control. For the same compound, the T/C (endpoint: median survival time, dose: 40.0 mg/kg/injection, schedule: Q04DX003 (ip), vehicle: other) was 104 % of control, the T/C (endpoint: median survival time, dose: 50.0 mg/kg/injection, schedule: Q01DX005 (ip), vehicle: other) was 86 % of control and the T/C (endpoint: median survival time, dose: 50.0 mg/kg/injection, schedule: Q01DX009 (ip), vehicle: other) was 103 % of control. The T/C (endpoint: median survival time, dose: 50.0 mg/kg/injection, schedule: Q04DX003 (ip), vehicle: Klucel (hydroxypropylcellulose) (HPC)) was 119 % of control, the T/C (endpoint: median survival time, dose: 70.0 mg/kg/injection, schedule: Q04DX003 (ip), vehicle: Klucel (hydroxypropylcellulose) (HPC)) was 119 % of control and the T/C (endpoint: median survival time, dose: 75.0 mg/kg/injection, schedule: Q04DX003 (oral), vehicle: other) was 101 % of control. The T/C (endpoint: median survival time, dose: 80.0 mg/kg/injection, schedule: Q01DX001 (ip), vehicle: other) was 157 % of control, the T/C (endpoint: median survival time, dose: 80.0 mg/kg/injection, schedule: Q08DX002 (ip), vehicle: other) was 182 % of control and the T/C (endpoint: median survival time, dose: 90.0 mg/kg/injection, schedule: Q04DX003 (ip), vehicle: other) was 167 % of control. The T/C (endpoint: median survival time, dose: 100.0 mg/kg/injection, schedule: Q01DX001 (ip), vehicle: other) was 151 % of control, the T/C (endpoint: median survival time, dose: 100.0 mg/kg/injection, schedule: Q01DX009 (oral), vehicle: other) was 102 % of control and the T/C (endpoint: median survival time, dose: 100.0 mg/kg/injection, schedule: Q04DX003 (iv), vehicle: other) was 101 % of control. For the same compound, the T/C (endpoint: median survival time, dose: 130.0 mg/kg/injection, schedule: Q01DX001 (ip), vehicle: other) was 155 % of control, the T/C (endpoint: median survival time, dose: 140.0 mg/kg/injection, schedule: Q08DX002 (ip), vehicle: other) was 112 % of control and the T/C (endpoint: median survival time, dose: 150.0 mg/kg/injection, schedule: Q04DX003 (oral), vehicle: other) was 119 % of control. The T/C (endpoint: median survival time, dose: 160.0 mg/kg/injection, schedule: Q08DX002 (ip), vehicle: other) was 153 % of control, the T/C (endpoint: median survival time, dose: 200.0 mg/kg/injection, schedule: Q01DX009 (oral), vehicle: other) was 103 % of control and the T/C (endpoint: median survival time, dose: 300.0 mg/kg/injection, schedule: Q01DX009 (oral), vehicle: other) was 109 % of control. The T/C (endpoint: median survival time, dose: 300.0 mg/kg/injection, schedule: Q04DX003 (oral), vehicle: other) was 98 % of control, the T/C (endpoint: median survival time, dose: 400.0 mg/kg/injection, schedule: Q01DX009 (oral), vehicle: other) was 108 % of control and the T/C (endpoint: median survival time, dose: 400.0 mg/kg/injection, schedule: Q04DX003 (oral), vehicle: other) was 102 % of control. For the same compound, the T/C (endpoint: median survival time, dose: 500.0 mg/kg/injection, schedule: Q04DX003 (oral), vehicle: other) was 97 % of control and the T/C (endpoint: median survival time, dose: 600.0 mg/kg/injection, schedule: Q04DX003 (oral), vehicle: other) was 104 % of control.
For `CCCC[As](=O)(O)C(C)C`, the T/C (endpoint: mean survival time, dose: 1.56 mg/kg/injection, schedule: Q01DX009 (ip), vehicle: saline) was 100 % of control, the T/C (endpoint: mean survival time, dose: 3.12 mg/kg/injection, schedule: Q01DX009 (ip), vehicle: saline) was 100 % of control and the T/C (endpoint: mean survival time, dose: 3.12 mg/kg/injection, schedule: Q04DX003 (ip), vehicle: saline) was 112 % of control. For the same compound, the T/C (endpoint: mean survival time, dose: 6.25 mg/kg/injection, schedule: Q04DX002 (ip), vehicle: saline) was 120 % of control, the T/C (endpoint: mean survival time, dose: 6.25 mg/kg/injection, schedule: Q04DX003 (ip), vehicle: saline) was 107 % of control and the T/C (endpoint: mean survival time, dose: 12.5 mg/kg/injection, schedule: Q01DX001 (ip), vehicle: saline) was 112 % of control. The T/C (endpoint: mean survival time, dose: 12.5 mg/kg/injection, schedule: Q04DX002 (ip), vehicle: saline) was 110 % of control, the T/C (endpoint: mean survival time, dose: 12.5 mg/kg/injection, schedule: Q04DX003 (ip), vehicle: saline) was 118 % of control and the T/C (endpoint: mean survival time, dose: 25.0 mg/kg/injection, schedule: Q01DX001 (ip), vehicle: saline) was 117 % of control. For the same compound, the T/C (endpoint: mean survival time, dose: 25.0 mg/kg/injection, schedule: Q01DX009 (ip), vehicle: saline) was 106 % of control and 111 % of control, the T/C (endpoint: mean survival time, dose: 25.0 mg/kg/injection, schedule: Q04DX003 (ip), vehicle: saline) was 105 % of control and the T/C (endpoint: mean survival time, dose: 50.0 mg/kg/injection, schedule: Q01DX001 (ip), vehicle: saline) was 103 % of control. The T/C (endpoint: mean survival time, dose: 50.0 mg/kg/injection, schedule: Q04DX002 (ip), vehicle: saline) was 117 % of control.
In the case of `Nc1ncnc(N)c1NC(=O)COc1ccc([N+](=O)[O-])cc1`, the T/C (endpoint: mean survival time, dose: 100.0 mg/kg/injection, schedule: Q01DX001 (ip), vehicle: Klucel (hydroxypropylcellulose) (HPC)) is reported as 102 % of control, the T/C (endpoint: mean survival time, dose: 200.0 mg/kg/injection, schedule: Q01DX001 (ip), vehicle: Klucel (hydroxypropylcellulose) (HPC)) is reported as 94 % of control and the T/C (endpoint: mean survival time, dose: 400.0 mg/kg/injection, schedule: Q01DX001 (ip), vehicle: Klucel (hydroxypropylcellulose) (HPC)) is reported as 100 % of control.
With `COc1ccc(COc2ccc(Cl)cc2)cc1OC` the T/C [1] was 109 % of control, the T/C (endpoint: mean survival time, dose: 200.0 mg/kg/injection, schedule: Q04DX003 (ip), vehicle: saline with Tween-80) was 98 % of control and the T/C (endpoint: mean survival time, dose: 400.0 mg/kg/injection, schedule: Q04DX003 (ip), vehicle: saline with Tween-80) was 101 % of control.
